# Laboratory results reported in ChEMBL document CHEMBL6083266, “Diastereomeric pure pyrazolyl-indolyl dihydrofurans: Unveiling isomeric selectivity in antibacterial action via in vitro and in silico insights” (Bioorg Med Chem Lett, 2024).
# Tests used:
# [1] = Cytotoxicity against mouse fibroblast cells assessed as cell viability at […] (reference value: 90.23 %); format: toxicity, cell-based; set-up: dose or concentration left out as unconfirmed; details: read-out: Activity
# Candida albicans = test: Antimicrobial activity against Candida albicans by serial dilution method; format: functional
# Listeria monocytogenes = test: Antimicrobial activity against Listeria monocytogenes by serial dilution method; format: functional
# Shigella flexneri = test: Antimicrobial activity against Shigella flexneri by serial dilution method; format: functional
# Salmonella typhi = test: Antimicrobial activity against Salmonella typhi by serial dilution method; format: functional, Salmonella enterica subsp. enterica serovar Typhi; details: Salmonella enterica
# Bacillus cereus = test: Antimicrobial activity against Bacillus cereus by serial dilution method; format: functional
# Pseudomonas aeruginosa = test: Antimicrobial activity against Pseudomonas aeruginosa by serial dilution method; format: functional
# Staphylococcus aureus [2] = test: Antimicrobial activity against Staphylococcus aureus by serial dilution method; format: functional
# Escherichia coli = test: Antimicrobial activity against Escherichia coli by serial dilution method; format: functional
# Staphylococcus aureus [3] = test: Antibacterial activity against methicillin-resistant Staphylococcus aureus; format: functional
compound,measurement,setting,value
CCOC(=O)C1(C(=O)OCC)C[C@@H](c2c[nH]c3ccc(C)cc23)O[C@H]1c1cn(-c2ccccc2)nc1-c1ccccc1,viability,[1],92.3%
CCOC(=O)C1(C(=O)OCC)C[C@@H](c2c[nH]c3ccc(OC)cc23)O[C@H]1c1cn(-c2ccccc2)nc1-c1ccc(C)cc1,viability,[1],88.9%
CCOC(=O)C1(C(=O)OCC)C[C@@H](c2c[nH]c3ccccc23)O[C@@H]1c1cn(-c2ccccc2)nc1-c1ccc(Cl)cc1,MIC,Candida albicans,12.5 µg/mL
same,MIC,Listeria monocytogenes,12.5 µg/mL
same,MIC,Shigella flexneri,12.5 µg/mL
same,MIC,Salmonella typhi,6.25 µg/mL
same,MIC,Bacillus cereus,6.25 µg/mL
same,MIC,Pseudomonas aeruginosa,3.12 µg/mL
same,MIC,Staphylococcus aureus [2],6.25 µg/mL
same,MIC,Escherichia coli,6.25 µg/mL
CCOC(=O)C1(C(=O)OCC)C[C@@H](c2c[nH]c3ccc(F)cc23)O[C@H]1c1cn(-c2ccccc2)nc1-c1ccc(OC)cc1,viability,[1],94.6%
CCOC(=O)C1(C(=O)OCC)C[C@@H](c2c[nH]c3ccccc23)O[C@H]1c1cn(-c2ccccc2)nc1-c1ccc(C)cc1,viability,[1],95.3%
OC(Cn1cncn1)(Cn1cncn1)c1ccc(F)cc1F [FLUCONAZOLE],MIC,Candida albicans,6.25 µg/mL
CCOC(=O)C1(C(=O)OCC)C[C@@H](c2c[nH]c3ccccc23)O[C@H]1c1cn(-c2ccccc2)nc1-c1ccccc1,viability,[1],93.2%
CCOC(=O)C1(C(=O)OCC)C[C@@H](c2c[nH]c3ccc(Cl)cc23)O[C@H]1c1cn(-c2ccccc2)nc1-c1ccc(F)cc1,viability,[1],90.5%
CCOC(=O)C1(C(=O)OCC)C[C@@H](c2c[nH]c3ccccc23)O[C@H]1c1cn(-c2ccccc2)nc1-c1ccc(OC)cc1,viability,[1],94.3%
CCOC(=O)C1(C(=O)OCC)C[C@@H](c2c[nH]c3ccc(F)cc23)O[C@H]1c1cn(-c2ccccc2)nc1-c1ccc(Cl)cc1,viability,[1],99.1%
CCOC(=O)C1(C(=O)OCC)C[C@@H](c2c[nH]c3ccc(F)cc23)O[C@H]1c1cn(-c2ccccc2)nc1-c1ccccc1,viability,[1],95.7%
CC1(C)S[C@@H]2[C@H](NC(=O)[C@H](N)c3ccc(O)cc3)C(=O)N2[C@H]1C(=O)O [AMOXICILLIN],MIC,Candida albicans,6.25 µg/mL
same,MIC,Listeria monocytogenes,3.12 µg/mL
same,MIC,Shigella flexneri,3.12 µg/mL
same,MIC,Salmonella typhi,3.12 µg/mL
same,MIC,Bacillus cereus,3.12 µg/mL
same,MIC,Pseudomonas aeruginosa,3.12 µg/mL
same,MIC,Staphylococcus aureus [2],3.12 µg/mL
same,MIC,Escherichia coli,3.12 µg/mL
CCOC(=O)C1(C(=O)OCC)C[C@@H](c2c[nH]c3ccc(Cl)cc23)O[C@H]1c1cn(-c2ccccc2)nc1-c1ccccc1,viability,[1],94.3%
CCOC(=O)C1(C(=O)OCC)C[C@@H](c2c[nH]c3ccc(Cl)cc23)O[C@H]1c1cn(-c2ccccc2)nc1-c1ccc(C)cc1,viability,[1],97.6%
CCOC(=O)C1(C(=O)OCC)C[C@@H](c2c[nH]c3ccc(OC)cc23)O[C@H]1c1cn(-c2ccccc2)nc1-c1ccc(Cl)cc1,viability,[1],88.8%
CCOC(=O)C1(C(=O)OCC)C[C@@H](c2c[nH]c3ccc(OC)cc23)O[C@H]1c1cn(-c2ccccc2)nc1-c1ccccc1,viability,[1],90.1%
CCOC(=O)C1(C(=O)OCC)C[C@@H](c2c[nH]c3ccc(C)cc23)O[C@H]1c1cn(-c2ccccc2)nc1-c1ccc(OC)cc1,viability,[1],93.5%
CCOC(=O)C1(C(=O)OCC)C[C@@H](c2c[nH]c3ccccc23)O[C@H]1c1cn(-c2ccccc2)nc1-c1ccc(F)cc1,viability,[1],99.1%
CCOC(=O)C1(C(=O)OCC)C[C@@H](c2c[nH]c3ccc(OC)cc23)O[C@H]1c1cn(-c2ccccc2)nc1-c1ccc(F)cc1,viability,[1],94.8%
CCOC(=O)C1(C(=O)OCC)C[C@@H](c2c[nH]c3ccc(OC)cc23)O[C@H]1c1cn(-c2ccccc2)nc1-c1ccc(OC)cc1,viability,[1],90.1%
CCOC(=O)C1(C(=O)OCC)C[C@@H](c2c[nH]c3ccc(C)cc23)O[C@H]1c1cn(-c2ccccc2)nc1-c1ccc(F)cc1,viability,[1],99.2%
CCOC(=O)C1(C(=O)OCC)C[C@@H](c2c[nH]c3ccc(Cl)cc23)O[C@H]1c1cn(-c2ccccc2)nc1-c1ccc(OC)cc1,viability,[1],91.4%
CC(=O)/C(=C\c1cn(CC(=O)N2CCCCC2)c2ccccc12)n1c([N+](=O)[O-])cnc1C,MIC,Staphylococcus aureus [3],1 µg/mL
CCOC(=O)C1(C(=O)OCC)C[C@@H](c2c[nH]c3ccc(F)cc23)O[C@H]1c1cn(-c2ccccc2)nc1-c1ccc(F)cc1,viability,[1],96.2%
CCOC(=O)C1(C(=O)OCC)C[C@@H](c2c[nH]c3ccc(C)cc23)O[C@H]1c1cn(-c2ccccc2)nc1-c1ccc(Cl)cc1,viability,[1],92.3%
CCOC(=O)C1(C(=O)OCC)C[C@@H](c2c[nH]c3ccc(C)cc23)O[C@H]1c1cn(-c2ccccc2)nc1-c1ccc(C)cc1,viability,[1],94.2%
Clc1cccc(-n2nc(C3CCNCC3)cc2/C=C/c2c[nH]c3ccc(Cl)cc23)c1,MIC,Staphylococcus aureus [3],1 µg/mL
CCOC(=O)C1(C(=O)OCC)C[C@@H](c2c[nH]c3ccccc23)O[C@H]1c1cn(-c2ccccc2)nc1-c1ccc(Cl)cc1,MIC,Candida albicans,12.5 µg/mL
same,MIC,Listeria monocytogenes,1.56 µg/mL
same,viability,[1],98.1%
same,MIC,Shigella flexneri,6.25 µg/mL
same,MIC,Salmonella typhi,1.56 µg/mL
same,MIC,Bacillus cereus,1.56 µg/mL
same,MIC,Pseudomonas aeruginosa,1.56 µg/mL
same,MIC,Staphylococcus aureus [2],1.56 µg/mL
same,MIC,Escherichia coli,3.12 µg/mL
CCOC(=O)C1(C(=O)OCC)C[C@@H](c2c[nH]c3ccc(F)cc23)O[C@H]1c1cn(-c2ccccc2)nc1-c1ccc(C)cc1,viability,[1],96.5%
CCOC(=O)C1(C(=O)OCC)C[C@@H](c2c[nH]c3ccc(Cl)cc23)O[C@H]1c1cn(-c2ccccc2)nc1-c1ccc(Cl)cc1,viability,[1],95.2%
